Like-named read-outs stand apart in the source and are kept apart here.
Legend:
[1] = molecular target: menin protein (Homo sapiens (Human), UniProt O00255); assay: biochemical; assay type: binding; conditions: FP competitive binding; menin protein 4 nM, FAM-MM2 probe 2 nM; read-out: Menin Binding Affinity IC50
How it was run: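 Test compounds displaced FAM-MM2 (2 nM) from 4 nM menin after 30 min equilibration at room temperature in PBS buffer containing bovine γ-globulin, 4% DMSO and Triton X-100. Binding was followed by fluorescence polarization. Competition curves were fitted by nonlinear regression to give IC50 and Ki.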

[2] = Cell growth inhibition, CellTiter-Glo Luminescent Cell Viability Assay; assay type: cell-based; conditions: 4 days, CellTiter-Glo
How it was run: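 Cells seeded at 2,000/well with serially diluted compound and cultured 4 days at 37 °C, 5% CO2. Viability read by CellTiter-Glo luminescence; IC50 derived from dose-response.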

[3] = MOLM-13, 96 h, MOLM13 cells, read-out: Cell Growth Inhibition IC50 (μM) MOLM13
[4] = MV4-11, 96 h, MV4, 11 cells, read-out: Cell Growth Inhibition IC50 (μM) MV4, 11

Chain of menin protein (O00255 whole entry): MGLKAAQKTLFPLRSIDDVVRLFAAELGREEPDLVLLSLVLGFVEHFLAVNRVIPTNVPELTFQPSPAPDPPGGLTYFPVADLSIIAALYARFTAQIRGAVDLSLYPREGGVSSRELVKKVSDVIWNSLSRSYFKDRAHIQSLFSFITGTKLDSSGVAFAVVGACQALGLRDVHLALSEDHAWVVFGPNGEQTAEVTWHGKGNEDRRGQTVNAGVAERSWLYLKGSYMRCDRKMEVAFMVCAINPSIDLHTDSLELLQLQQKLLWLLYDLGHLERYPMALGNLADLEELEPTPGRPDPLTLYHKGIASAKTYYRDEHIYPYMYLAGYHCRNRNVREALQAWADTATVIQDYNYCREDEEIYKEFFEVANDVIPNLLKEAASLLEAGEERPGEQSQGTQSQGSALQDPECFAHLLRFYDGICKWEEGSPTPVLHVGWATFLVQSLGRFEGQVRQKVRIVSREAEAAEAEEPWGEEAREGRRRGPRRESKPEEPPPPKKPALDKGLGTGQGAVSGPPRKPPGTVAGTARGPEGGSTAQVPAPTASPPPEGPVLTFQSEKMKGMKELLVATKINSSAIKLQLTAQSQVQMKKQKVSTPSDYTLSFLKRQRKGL

Structure (SMILES)	IC50 [1]	IC50 [2, 3]	IC50 [2, 4]	IC50 ([2]; MOLM13 cells, read-out: Cell Growth Inhibition IC50 (μM) MOLM13)	IC50 ([2]; MV4, 11 cells, read-out: Cell Growth Inhibition IC50 (μM) MV4, 11)
CN1Cc2ccccc2C(C2CCCC2)(C2CCN(CC3CN(c4ccc(C#N)cc4)C3)CC2)C1 (stereo not drawn) [compound 45, 4-(3-((4-(4-cyclopentyl-2-methyl-1,2,3,4-tetrahydroisoquinolin-4-yl)piperidin-1-yl)methyl)azetidin-1-yl)benzonitrile]	27 nM	5 µM	0.845 ± 0.436 µM	–	–
CCN1Cc2ccccc2C(C2CCCC2)(C2CCN(CC3CN(c4ccc(C#N)cc4)C3)CC2)C1 (stereo not drawn) [compound 46, 4-(3-((4-(4-cyclopentyl-2-ethyl-1,2,3,4-tetrahydroisoquinolin-4-yl)piperidin-1-yl)methyl)azetidin-1-yl)benzonitrile]	23 nM	5.1 ± 0.2 µM	0.972 ± 0.558 µM	–	–
CC(C)N1Cc2ccccc2C(C2CCCC2)(C2CCN(CC3CN(c4ccc(S(=O)(=O)c5ccncc5)cc4)C3)CC2)C1 (stereo not drawn) [compound 48, 4-cyclopentyl-2-isopropyl-4-(1-((1-(4-(pyridin-4-ylsulfonyl)phenyl)azetidin-3-yl)methyl)piperidin-4-yl)-1,2,3,4-tetrahydroisoquinoline]	7 nM	2.8 µM	0.908 µM	–	–
O=S(=O)(c1ccncc1)c1ccc(N2CC(CN3CCC(C4(C5CCCC5)CN(C5CCC5)Cc5ccccc54)CC3)C2)cc1 (stereo not drawn) [compound 49, 2-cyclobutyl-4-cyclopentyl-4-(1-((1-(4-(pyridin-4-ylsulfonyl)phenyl)azetidin-3-yl)methyl)piperidin-4-yl)-1,2,3,4-tetrahydroisoquinoline]	9 nM	4 µM	0.898 µM	–	–
O=S(=O)(c1ccncc1)c1ccc(N2CC(CN3CCC(C4(C5CCCC5)CNCc5ccccc54)CC3)C2)cc1 (stereo not drawn) [compound 51, 4-cyclopentyl-4-(1-((1-(4-(pyridin-4-ylsulfonyl)phenyl)azetidin-3-yl)methyl)piperidin-4-yl)-1,2,3,4-tetrahydroisoquinoline]	8 nM	1.46 µM	0.67 µM	–	–
CN1Cc2ccccc2C(C2CCCC2)(C2CCN(CC3CN(c4ccc(S(=O)(=O)C5CC5)cc4)C3)CC2)C1 (stereo not drawn) [compound 70, 4-cyclopentyl-4-(1-((1-(4-(cyclopropylsulfonyl)phenyl)azetidin-3-yl)methyl)piperidin-4-yl)-2-methyl-1,2,3,4-tetrahydroisoquinoline]	12 nM	3.5 µM	2.2 µM	–	–
O=S(=O)(c1ccc(N2CC(CN3CCC(C4(C5CCCC5)NCCc5ccccc54)CC3)C2)cc1)C1CCC1 (stereo not drawn) [compound 85, 1-(1-((1-(4-(cyclobutylsulfonyl)phenyl)azetidin-3-yl)methyl)piperidin-4-yl)-1-cyclopentyl-1,2,3,4-tetrahydroisoquinoline]	36 nM	4.2 µM	1.6 µM	–	–
O=S(=O)(CC1CCC1)c1ccc(N2CC(CN3CCC(C4(C5CCCC5)NCCc5ccccc54)CC3)C2)cc1 (stereo not drawn) [compound 86, 1-(1-((1-(4-((cyclobutylmethyl)sulfonyl)phenyl)azetidin-3-yl)methyl)piperidin-4-yl)-1-cyclopentyl-1,2,3,4-tetrahydroisoquinoline]	55 nM	1.2 ± 0.5 µM	0.864 ± 0.017 µM	–	–
O=S(=O)(CC1CCCC1)c1ccc(N2CC(CN3CCC(C4(C5CCCC5)NCCc5ccccc54)CC3)C2)cc1 (stereo not drawn) [compound 91, 1-cyclopentyl-1-(1-((1-(4-((cyclopentylmethyl)sulfonyl)phenyl)azetidin-3-yl)methyl)piperidin-4-yl)-1,2,3,4-tetrahydroisoquinoline]	42 nM	1.7 ± 0.004 µM	1.3 ± 0.3 µM	–	–
O=S(=O)(c1ccc(N2CC(CN3CCC(C4(C5CCCC5)NCCc5ccccc54)CC3)C2)cc1)C1CCCCC1 (stereo not drawn) [compound 92, 1-(1-((1-(4-(cyclohexylsulfonyl)phenyl)azetidin-3-yl)methyl)piperidin-4-yl)-1-cyclopentyl-1,2,3,4-tetrahydroisoquinoline]	19 nM	1.6 ± 0.1 µM	0.961 ± 0.384 µM	–	–
O=S(=O)(CC1CCCCC1)c1ccc(N2CC(CN3CCC(C4(C5CCCC5)NCCc5ccccc54)CC3)C2)cc1 (stereo not drawn) [compound 93, 1-(1-((1-(4-((cyclohexylmethyl)sulfonyl)phenyl)azetidin-3-yl)methyl)piperidin-4-yl)-1-cyclopentyl-1,2,3,4-tetrahydroisoquinoline]	52 nM	1.1 ± 0.7 µM	0.779 ± 0.068 µM	–	–
CCN1Cc2ccccc2C(C2CCCC2)(C2CCN(CC3CN(c4ccc(S(=O)(=O)C5CC5)cc4)C3)C(C)C2)C1 (stereo not drawn) [compound 94, 4-cyclopentyl-4-(1-((1-(4-(cyclopropylsulfonyl)phenyl)azetidin-3-yl)methyl)-2-methylpiperidin-4-yl)-2-ethyl-1,2,3,4-tetrahydroisoquinoline]	29 nM	2.3 µM	2 µM	–	–
CCN1Cc2ccccc2C(C2CCCC2)(C2CCN(CC3CN(c4ccc(S(=O)(=O)C5CC5)cc4)C3)C(C)C2)C1 (stereo not drawn) [compound 95, 4-cyclopentyl-4-(1-((1-(4-(cyclopropylsulfonyl)phenyl)azetidin-3-yl)methyl)-2-methylpiperidin-4-yl)-2-ethyl-1,2,3,4-tetrahydroisoquinoline]	24 nM	–	–	1.9 µM	1.8 µM
CCN1Cc2ccccc2C(C2CCCC2)(C2CCN(CC3CN(c4ccc(S(=O)(=O)c5ccn(C)c5)cc4)C3)CC2)C1 (stereo not drawn) [compound 101, 4-cyclopentyl-2-ethyl-4-(1-((1-(4-((1-methyl-1H-pyrrol-3-yl)sulfonyl)phenyl)azetidin-3-yl)methyl)piperidin-4-yl)-1,2,3,4-tetrahydroisoquinoline]	10 nM	0.73 µM	0.3 µM	–	–
CCN1Cc2ccccc2C(C2CCCC2)(C2CCN(CC3CN(c4ccc(S(=O)(=O)c5cnn(C)c5)cc4)C3)CC2)C1 (stereo not drawn) [compound 102, 4-cyclopentyl-2-ethyl-4-(1-((1-(4-((1-methyl-1H-pyrazol-4-yl)sulfonyl)phenyl)azetidin-3-yl)methyl)piperidin-4-yl)-1,2,3,4-tetrahydroisoquinoline]	11 nM	0.708 µM	0.267 µM	–	–
CCN1Cc2ccccc2C(C2CCCC2)(C2CCN(CC3CN(c4ccc(S(=O)(=O)c5cnn(CC)c5)cc4)C3)CC2)C1 (stereo not drawn) [compound 103, 4-cyclopentyl-2-ethyl-4-(1-((1-(4-((1-ethyl-1H-pyrazol-4-yl)sulfonyl)phenyl)azetidin-3-yl)methyl)piperidin-4-yl)-1,2,3,4-tetrahydroisoquinoline]	12 nM	2.26 µM	0.49 µM	–	–
c1cnc(N2CC(CN3CCC(C4(C5CCCC5)NCCc5ccccc54)CC3)C2)nc1 (stereo not drawn) [compound 111, 1-cyclopentyl-1-(1-((1-(pyrimidin-2-yl)azetidin-3-yl)methyl)piperidin-4-yl)-1,2,3,4-tetrahydroisoquinoline]	46200 nM	96.2 µM	14.4 µM	–	–
N#Cc1ccc(N2CCC(CN3CCC(C4(C5CCCC5)NCCc5ccccc54)CC3)C2)cc1 (stereo not drawn) [compound 113, 4-(3-((4-(1-cyclopentyl-1,2,3,4-tetrahydroisoquinolin-1-yl)piperidin-1-yl)methyl)pyrrolidin-1-yl)benzonitrile]	67 nM	2.4 µM	1.6 µM	–	–

— patent US10899738B2 (THE REGENTS OF THE UNIVERSITY OF MICHIGAN, priority 2016, dated 2021)
